By IC50 is commonly meant the midpoint of a concentration-inhibition curve. One may read the melting point as the temperature, or range, at which the solid turns liquid.

Where only a bound is given, the exact number is not on record here.

Data on 16 compounds can be found in paper PMC8838847, “Design, Synthesis and Cytotoxicity of Thiazole-Based Stilbene Analogs as Novel DNA Topoisomerase IB Inhibitors” (Molecules, 2022).

In data set [1] the test system is human breast cancer (MCF-7) cells. The data set can be described thus: MTT cytotoxicity assay, MCF-7. The data set is classed as cell-based. The settings on record: five doses 0.01-100 µM. On the procedure: (§1) The cytotoxicity of the desired compounds was assessed through MTT assay against two human cancer cell lines, human breast cancer (MCF-7) and colon cancer (HCT116), and one normal cell line, human embryonic kidney 293T (HEK293T). CPT and etoposide (VP-16) were used as positive controls. The compounds were incubated with cells for 72 h in a five-dose assay ranging from 0.01 to 100 µΜ. After the drug treatments, MTT solution was added to test the percentage growth of tumor cells.
(§2) The cells were cultured on RPMI 1640 Medium at 37 °C in a humidified atmosphere with 5% CO2. The cytotoxicities of the target compounds were evaluated through MTT assay against two human cancer cell lines (human breast cancer MCF-7 and human colon cancer HCT116). For the compound treatment experiments, the cancer cells were treated with the compounds (pre-dissolved in DMSO) via a five-dose assay ranging from 10^−8 to 10^−4 M. After incubation for 72 h at 37 °C, MTT solution (20 μL, 2.5 mg/mL) in PBS (PBS without MTT as the blank) was added to each well of the culture plate. After incubation for 4 h, the formazan crystal formed in the well was dissolved in 100 μL of DMSO for an optical density of 570 nm. The IC50 value was calculated using nonlinear regression analysis (GraphPad Prism). Every experiment was conducted three times, independently.
For orientation: Tetrazolium assays rely on reduction of a dye to a coloured formazan, in cell work by metabolically active cells.

For data set [2], the system named is human colon cancer (HCT116) cells. Briefly: MTT cytotoxicity assay, HCT116. It counts as cell-based. The settings on record: five doses 0.01-100 µM. Here is the method:
as §1, §2

In the case of `Fc1ccc(-c2csc(/C=C/c3ccccc3)n2)cc1` [Compound 6, (E)-4-(4-fluorophenyl)-2-styrylthiazole], the melting point lay within 129 to 130 °C. In data set [1] (Homo sapiens, MCF7, 72 h), this compound showed an IC50 of 22.2 ± 5.01 µM. The same compound yielded an IC50 in data set [2] (Homo sapiens, HCT-116, 72 h) of 5.78 ± 1.89 µM.
The like results for `Cc1ccccc1/C=C/c1nc(-c2ccc(F)cc2)cs1` [Compound 7, (E)-2-(2-methylstyryl)-4-(4-fluorophenyl)thiazole] were, in that order, 74 to 75 °C, 31.4 ± 4.21 µM and 6.47 ± 0.62 µM.
The like results for `Fc1ccc(-c2csc(/C=C/c3ccc(C(F)(F)F)cc3)n2)cc1` [Compound 10, (E)-2-(4-(trifluoromethyl)styryl)-4-(4-fluorophenyl)thiazole] were, in that order, 111 to 113 °C, 17.3 ± 1.62 µM and 22.6 ± 2.41 µM.
The like results for `COc1ccccc1/C=C/c1nc(-c2ccc(F)cc2)cs1` [Compound 12, (E)-2-(2-methoxystyryl)-4-(4-fluorophenyl)thiazole] were, in that order, 73 to 74 °C, 49.5 ± 9.08 µM and 17.8 ± 1.16 µM.
As for `COc1cccc(/C=C/c2nc(-c3ccc(F)cc3)cs2)c1` [Compound 13, (E)-2-(3-methoxystyryl)-4-(4-fluorophenyl)thiazole], the melting point is 115 to 116 °C. The compound further registered a half-inhibitory concentration (IC50) in data set [1] (72 h) of 9.85 ± 0.47 µM. Further, the half-maximal inhibitory concentration (IC50) in data set [1] (Homo sapiens, MCF7, 72 h) is less than 10 µM. Besides, in data set [2] (72 h), 4.99 ± 0.8 µM corresponded to half-maximal inhibition (IC50). In data set [2] (Homo sapiens, HCT-116, 72 h), this compound returned an IC50 of less than 5 µM.
On to `Fc1ccc(/C=C/c2nc(-c3ccc(F)cc3)cs2)cc1` [Compound 15, (E)-2-(4-fluorostyryl)-4-(4-fluorophenyl)thiazole], for which the melting point fell in the range of 147 to 149 °C. This compound also displayed a concentration for half-maximal inhibition (IC50) in data set [2] (Homo sapiens, HCT-116, 72 h) of 10.2 ± 1.07 µM.
Regarding `Fc1ccc(-c2csc(/C=C/c3ccccc3Cl)n2)cc1` [Compound 16, (E)-2-(2-chlorostyryl)-4-(4-fluorophenyl)thiazole], the melting point was in the range of 97 to 98 °C. In data set [1] (Homo sapiens, MCF7, 72 h), this compound had an IC50 of 15.2 ± 1.18 µM. Also, the half-maximal inhibitory concentration (IC50) in data set [2] (Homo sapiens, HCT-116, 72 h) was 8.42 ± 1.1 µM.
The like results for `Fc1ccc(-c2csc(/C=C/c3ccccc3Br)n2)cc1` [Compound 18, (E)-2-(2-bromostyryl)-4-(4-fluorophenyl)thiazole] were, in that order, 94 to 95 °C, 20 ± 2.07 µM and 12.3 ± 1.1 µM.
The like results for `Fc1ccc(-c2csc(/C=C/c3cccc(Br)c3)n2)cc1` [Compound 19, (E)-2-(3-bromostyryl)-4-(4-fluorophenyl)thiazole] were, in that order, 142 to 144 °C, 11.5 ± 1.74 µM and 6.95 ± 0.33 µM.
The like results for `Cc1cccc(/C=C/c2nc(-c3ccc(Cl)cc3)cs2)c1` [Compound 22, (E)-4-(4-chlorophenyl)-2-(3-methylstyryl)thiazole] were, in that order, 133 to 134 °C, greater than 100 µM and greater than 100 µM.
Compound `COc1ccccc1/C=C/c1nc(-c2ccc(Cl)cc2)cs1` [Compound 24, (E)-4-(4-chlorophenyl)-2-(2-methoxystyryl)thiazole] showed a melting point of 93 to 95 °C. In data set [1] (Homo sapiens, MCF7, 72 h), this compound came in with a half-inhibitory concentration (IC50) greater than 100 µM. In addition, the midpoint of inhibition in data set [2] (Homo sapiens, HCT-116, 72 h), the IC50, lay at 49.4 ± 3.49 µM.
In turn, `Cc1cccc(/C=C/c2nc(-c3ccc(Br)cc3)cs2)c1` [Compound 26, (E)-4-(4-bromophenyl)-2-(3-methylstyryl)thiazole] returned a melting point of 174 to 176 °C. The half-maximal inhibitory concentration (IC50) in data set [1] (Homo sapiens, MCF7, 72 h) turned out to be 10.8 ± 2.42 µM.
Consider `FC(F)(F)c1ccc(/C=C/c2nc(-c3ccc(Br)cc3)cs2)cc1` [Compound 27, (E)-4-(4-bromophenyl)-2-(4-(trifluoromethyl)styryl)thiazole], for which the melting point was in the range of 102 to 103 °C. Besides, inhibition in data set [1] (Homo sapiens, MCF7, 72 h) was half-maximal at 24.3 ± 5.62 µM (IC50). The compound further showed an IC50 in data set [2] (Homo sapiens, HCT-116, 72 h) of 34.9 ± 5.66 µM.
In turn, `Fc1ccc(/C=C/c2nc(-c3ccc(Br)cc3)cs2)cc1` [Compound 29, (E)-4-(4-bromophenyl)-2-(4-fluorostyryl)thiazole] displayed a melting point of 176 to 178 °C. This compound also registered an IC50 in data set [1] (Homo sapiens, MCF7, 72 h) greater than 100 µM. Besides, half-maximal inhibition in data set [2] (Homo sapiens, HCT-116, 72 h) (IC50) required 63.2 ± 6.17 µM.
`CC(C)=CCOc1cccc(/C=C/c2nc(-c3ccc(Br)cc3)cs2)c1` [Compound 36, (E)-4-(4-bromophenyl)-2-(3-((3-methylbut-2-en-1-yl)oxy)styryl)thiazole] yielded a melting point of 122 to 123 °C. Moreover, the concentration for half-maximal inhibition (IC50) in data set [1] (Homo sapiens, MCF7, 72 h) was greater than 100 µM. Besides, the IC50 in data set [2] (Homo sapiens, HCT-116, 72 h) was greater than 100 µM.
As for `COc1cc([C@@H]2c3cc4c(cc3[C@@H](O[C@@H]3O[C@@H]5CO[C@@H](C)O[C@H]5[C@H](O)[C@H]3O)[C@H]3COC(=O)[C@H]23)OCO4)cc(OC)c1O` [vp-16, etoposide, reference compound], the IC50 came to 24.7 ± 3.12 µM in data set [1] (Homo sapiens, MCF7, 72 h) and 18.9 ± 1.35 µM in data set [2] (Homo sapiens, HCT-116, 72 h).
